The target in one test is T1, µ-calpain (Sus scrofa, UniProt P35750).
T1 sequence (P35750 1-714): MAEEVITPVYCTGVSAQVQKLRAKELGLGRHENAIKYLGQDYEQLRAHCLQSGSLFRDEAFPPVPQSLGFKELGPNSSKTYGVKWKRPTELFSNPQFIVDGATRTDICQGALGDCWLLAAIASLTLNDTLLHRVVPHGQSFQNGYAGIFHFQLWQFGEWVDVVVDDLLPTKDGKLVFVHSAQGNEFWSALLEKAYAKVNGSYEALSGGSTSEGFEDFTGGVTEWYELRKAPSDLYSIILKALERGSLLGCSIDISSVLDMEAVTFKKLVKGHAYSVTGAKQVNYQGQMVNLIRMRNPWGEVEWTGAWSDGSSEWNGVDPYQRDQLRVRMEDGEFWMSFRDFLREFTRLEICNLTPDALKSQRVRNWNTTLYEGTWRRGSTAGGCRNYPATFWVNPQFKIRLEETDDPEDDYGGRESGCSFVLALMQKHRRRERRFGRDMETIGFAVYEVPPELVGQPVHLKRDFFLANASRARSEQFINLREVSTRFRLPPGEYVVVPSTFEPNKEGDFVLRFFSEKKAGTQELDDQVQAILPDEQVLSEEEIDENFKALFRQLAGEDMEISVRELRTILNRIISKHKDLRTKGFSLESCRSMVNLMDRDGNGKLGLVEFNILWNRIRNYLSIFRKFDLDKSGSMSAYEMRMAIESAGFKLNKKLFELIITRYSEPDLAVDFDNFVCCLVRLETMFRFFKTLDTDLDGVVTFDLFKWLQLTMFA
T1 sequence (P04574 1-266 partner): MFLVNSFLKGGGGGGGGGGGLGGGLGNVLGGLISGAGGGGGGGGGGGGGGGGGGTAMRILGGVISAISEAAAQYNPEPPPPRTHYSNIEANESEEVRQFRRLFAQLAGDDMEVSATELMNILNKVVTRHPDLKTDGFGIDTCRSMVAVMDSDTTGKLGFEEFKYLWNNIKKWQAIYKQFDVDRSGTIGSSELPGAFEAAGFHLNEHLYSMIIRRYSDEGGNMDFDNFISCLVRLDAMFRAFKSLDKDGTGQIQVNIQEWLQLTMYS
The experiment in a line: fluorogenic Suc-Leu-Tyr-AMC hydrolysis assay with purified enzyme. Format: biochemical.

Another test concerns the target T2, m-calpain (Rattus norvegicus, UniProt Q07009).
T2 sequence (Q07009 20-700): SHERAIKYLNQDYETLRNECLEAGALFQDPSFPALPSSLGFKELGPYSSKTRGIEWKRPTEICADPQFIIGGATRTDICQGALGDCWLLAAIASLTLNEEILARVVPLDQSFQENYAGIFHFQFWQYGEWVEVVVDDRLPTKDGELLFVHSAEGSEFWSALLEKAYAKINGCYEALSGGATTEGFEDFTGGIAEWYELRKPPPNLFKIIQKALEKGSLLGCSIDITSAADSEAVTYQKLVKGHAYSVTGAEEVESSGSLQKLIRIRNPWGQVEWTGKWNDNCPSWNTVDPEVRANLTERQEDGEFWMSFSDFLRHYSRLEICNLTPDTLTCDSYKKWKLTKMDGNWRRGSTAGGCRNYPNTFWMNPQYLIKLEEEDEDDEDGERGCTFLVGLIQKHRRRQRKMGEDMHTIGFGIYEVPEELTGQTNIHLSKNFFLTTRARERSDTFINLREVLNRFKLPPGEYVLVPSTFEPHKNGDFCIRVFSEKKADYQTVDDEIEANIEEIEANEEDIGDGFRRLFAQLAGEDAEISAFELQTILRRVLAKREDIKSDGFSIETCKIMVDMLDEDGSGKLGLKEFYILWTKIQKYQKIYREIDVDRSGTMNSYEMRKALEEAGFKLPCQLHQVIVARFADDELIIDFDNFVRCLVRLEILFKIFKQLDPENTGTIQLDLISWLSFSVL
T2 sequence (Q64537 1-270 partner): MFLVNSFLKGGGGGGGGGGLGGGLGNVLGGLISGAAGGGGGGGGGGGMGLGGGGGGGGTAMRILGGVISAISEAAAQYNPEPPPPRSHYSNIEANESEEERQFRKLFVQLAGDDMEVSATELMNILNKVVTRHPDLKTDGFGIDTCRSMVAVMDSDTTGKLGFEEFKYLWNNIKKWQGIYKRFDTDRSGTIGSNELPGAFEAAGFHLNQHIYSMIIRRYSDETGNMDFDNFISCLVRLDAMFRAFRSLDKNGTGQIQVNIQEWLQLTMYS
The test is described as above. The test is classed as biochemical.

In the case of `CC[C@H](NC(=O)[C@H](CC(C)C)NC(=O)OCc1ccccc1)C(=O)C(=O)NCc1cc(OC)cc(OC)c1` [mCalp-I], the Ki (commonly the dissociation constant of the complex between target and ligand, obtained from inhibition or displacement) at µ-calpain was 940 nM; on m-calpain it was 25 nM.

Values taken from paper PMC3895372 (Nature communications, 2014).
